Laboratory results reported in ChEMBL document CHEMBL5252541, “Repurposing antipsychotic drugs into antifungal agents: Synergistic combinations of azoles and bromperidol derivatives in the treatment of various fungal infections” (Eur J Med Chem, 2017).
In brackets after ≈: the same amount, converted by molar mass.

Key:
[1] = Cytotoxicity against mouse J774.A1 cells assessed as cell survival at 8 microg/ml by XTT assay; type: toxicity, cell-based; settings: J774.A1 cells, at 8 µg/mL, read-out: Activity
Candida albicans [2] = assay: Antifungal activity against Candida albicans ATCC 10231 measured after 48 hrs by broth microdilution analysis; type: functional
HEK293 [3] = assay: Cytotoxicity against HEK293 cells assessed as cell survival at 8 microg/ml by XTT assay; type: toxicity, cell-based; settings: human, dose 8 µg/ml
[4] = Cytotoxicity against HEK293 cells assessed as cell survival at 16 microg/ml by XTT assay; type: toxicity, cell-based; settings: human, at 16 µg/mL, read-out: Activity
Candida albicans [5] = assay: Synergistic antifungal activity against Candida albicans ATCC 10231 assessed as posaconazole MIC measured after 48 hrs by checkboard based microplate reader analysis; type: functional
J774.A1 [6] = assay: Cytotoxicity against mouse J774.A1 cells assessed as cell survival up to 4 microg/ml by XTT assay; type: toxicity, cell-based; settings: dose < 4 µg/ml
Candida albicans [7] = assay: Additive antifungal activity against Candida albicans ATCC MYA-1237 assessed as fractional inhibitory concentration index measured for 72 hrs in presence of posaconazole; type: functional
Aspergillus terreus [8] = assay: Antifungal activity against Aspergillus terreus ATCC MYA-3633 measured after 48 hrs by broth microdilution analysis; type: functional
Candida albicans [9] = assay: Antifungal activity against Candida albicans ATCC MYA-1003 measured after 48 hrs by broth microdilution analysis; type: functional
Candida albicans [10] = assay: Synergistic antifungal activity against Candida albicans ATCC MYA-2310 assessed as posaconazole MIC measured after 48 hrs by checkboard based microplate reader analysis; type: functional
BEAS-2B [11] = assay: Cytotoxicity against human BEAS-2B cells assessed as cell survival up to 4 microg/ml by XTT assay; type: toxicity, cell-based; settings: dose < 4 µg/ml
Candida albicans [12] = assay: Synergistic antifungal activity against Candida albicans ATCC 64124 assessed as posaconazole MIC measured after 48 hrs by checkboard based microplate reader analysis; type: functional
Candida albicans [13] = assay: Synergistic antifungal activity against Candida albicans ATCC 90819 assessed as posaconazole MIC measured after 48 hrs by checkboard based microplate reader analysis; type: functional
Nakaseomyces glabratus [14] = assay: Synergistic antifungal activity against Candida glabrata ATCC 2001 assessed as posaconazole MIC measured after 48 hrs by checkboard based microplate reader analysis; type: functional
Candida albicans [15] = assay: Antifungal activity against Candida albicans ATCC MYA-1237 measured after 48 hrs by broth microdilution analysis; type: functional
[16] = Cytotoxicity against mouse J774.A1 cells assessed as cell survival at 16 microg/ml by XTT assay; type: toxicity, cell-based; settings: at 16 µg/mL, read-out: Activity
Candida albicans [17] = assay: Synergistic antifungal activity against Candida albicans ATCC MYA-1003 assessed as posaconazole MIC measured after 48 hrs by checkboard based microplate reader analysis; type: functional
Candida albicans [18] = assay: Antifungal activity against Candida albicans ATCC 64124 measured after 48 hrs by broth microdilution analysis; type: functional
[19] = Cytotoxicity against human BEAS-2B cells assessed as cell survival by XTT assay; type: toxicity, cell-based; settings: read-out: Activity
Candida albicans [20] = assay: Antifungal activity against Candida albicans ATCC 90819 measured after 48 hrs by broth microdilution analysis; type: functional
Aspergillus terreus [21] = assay: Synergistic antifungal activity against Aspergillus terreus ATCC MYA-3633 assessed as posaconazole MIC measured after 48 hrs by checkboard based microplate reader analysis; type: functional
Candida albicans [22] = assay: Synergistic antifungal activity against Candida albicans ATCC MYA-1237 assessed as posaconazole MIC measured after 48 hrs by checkboard based microplate reader analysis; type: functional
Candida albicans [23] = assay: Synergistic antifungal activity against Candida albicans ATCC MYA-2876 assessed as posaconazole MIC measured after 48 hrs by checkboard based microplate reader analysis; type: functional
[24] = Cytotoxicity against HEK293 cells assessed as cell survival by XTT assay; type: toxicity, cell-based; settings: human, read-out: Activity
Candida albicans [25] = assay: Antifungal activity against Candida albicans ATCC MYA-2876 measured after 48 hrs by broth microdilution analysis; type: functional
Nakaseomyces glabratus [26] = assay: Antifungal activity against Candida glabrata ATCC 2001 measured after 48 hrs by broth microdilution analysis; type: functional
HEK293 [27] = assay: Cytotoxicity against HEK293 cells assessed as cell survival up to 4 microg/ml by XTT assay; type: toxicity, cell-based; settings: human, dose < 4 µg/ml
[28] = Cytotoxicity against mouse J774.A1 cells assessed as cell survival by XTT assay; type: toxicity, cell-based; settings: read-out: Activity
Nakaseomyces glabratus [29] = assay: Synergistic antifungal activity against Candida glabrata ATCC 2001 assessed as voriconazole MIC measured after 48 hrs by checkboard based microplate reader analysis; type: functional
BEAS-2B [30] = assay: Cytotoxicity against human BEAS-2B cells assessed as cell survival at 4 to 16 microg/ml by XTT assay; type: toxicity, cell-based; settings: dose 4-16 µg/ml
Candida albicans [31] = assay: Additive antifungal activity against Candida albicans ATCC MYA-1237 assessed as fractional inhibitory concentration index measured for 72 hrs in presence of voriconazole; type: functional
Candida albicans [32] = assay: Synergistic antifungal activity against Candida albicans ATCC MYA-2876 assessed as voriconazole MIC measured after 48 hrs by checkboard based microplate reader analysis; type: functional
Candida albicans [33] = assay: Synergistic antifungal activity against Candida albicans ATCC MYA-1003 assessed as voriconazole MIC measured after 48 hrs by checkboard based microplate reader analysis; type: functional
J774.A1 [34] = assay: Cytotoxicity against mouse J774.A1 cells assessed as cell survival at 4 to 16 microg/ml by XTT assay; type: toxicity, cell-based; settings: dose 4-16 µg/ml
Candida albicans [35] = assay: Synergistic antifungal activity against Candida albicans ATCC MYA-2310 assessed as voriconazole MIC measured after 48 hrs by checkboard based microplate reader analysis; type: functional
Candida albicans [36] = assay: microbe, parasite or virus in culture; settings: ATCC 64124, 48 h
Description: Synergistic antifungal activity against Candida albicans ATCC 64124 assessed as voriconazole MIC measured after 48 hrs by checkboard based microplate reader analysis

Candida albicans [37] = assay: Synergistic antifungal activity against Candida albicans ATCC MYA-1237 assessed as voriconazole MIC measured after 48 hrs by checkboard based microplate reader analysis; type: functional
Candida albicans [38] = assay: microbe, parasite or virus in culture; settings: ATCC 10231, 48 h
Description: Synergistic antifungal activity against Candida albicans ATCC 10231 assessed as voriconazole MIC measured after 48 hrs by checkboard based microplate reader analysis

Aspergillus terreus [39] = assay: Synergistic antifungal activity against Aspergillus terreus ATCC MYA-3633 assessed as voriconazole MIC measured after 48 hrs by checkboard based microplate reader analysis; type: functional
Candida albicans [40] = assay: microbe, parasite or virus in culture; settings: ATCC 90819, 48 h
Description: Synergistic antifungal activity against Candida albicans ATCC 90819 assessed as voriconazole MIC measured after 48 hrs by checkboard based microplate reader analysis

HEK293 [41] = assay: Cytotoxicity against HEK293 cells assessed as cell survival at 4 to 16 microg/ml by XTT assay; type: toxicity, cell-based; settings: human, dose 4-16 µg/ml

SMILES | viability at 8 microg/ml [1] | MIC (Candida albicans [2]) | Activity (HEK293 [3]) | Activity (J774.A1 [6]) | MIC (Aspergillus terreus [8]) | MIC (Candida albicans [9]) | Activity (BEAS-2B [11]) | MIC (Candida albicans [15]) | MIC (Candida albicans [18]) | viability [19] | MIC (Candida albicans [20]) | viability [24] | MIC (Candida albicans [25]) | MIC (Nakaseomyces glabratus [26]) | Activity (HEK293 [27]) | viability [28] | further results
CC[C@@H]([C@H](C)O)n1ncn(-c2ccc(N3CCN(c4ccc(OC[C@@H]5CO[C@@](Cn6cncn6)(c6ccc(F)cc6F)C5)cc4)CC3)cc2)c1=O [POSACONAZOLE] | 80% | 1 mg/L (≈ 1.43 µM) | Non-Toxic | Non-Toxic | 0.25 mg/L (≈ 0.357 µM) | > 32 mg/L | Non-Toxic | > 32 mg/L | > 32 mg/L | > 100% | > 32 mg/L | > 100% | > 32 mg/L | > 32 mg/L | Non-Toxic | > 100% | viability at 16 microg/ml [4]: 45%; MIC (Candida albicans [5]): 0.125 mg/L; fractional inhibitory concentration index (FICI) (Candida albicans [7]): 2; MIC (Candida albicans [10]): 0.5 mg/L; MIC (Candida albicans [12]): 2 mg/L; MIC (Candida albicans [13]): 0.25 mg/L; MIC (Nakaseomyces glabratus [14]): 0.25 mg/L; viability at 16 microg/ml [16]: 46%; MIC (Candida albicans [17]): 0.5 mg/L; MIC (Aspergillus terreus [21]): 0.25 mg/L; MIC (Candida albicans [22]): 0.5 mg/L; MIC (Candida albicans [23]): > 32 mg/L
C[C@@H](c1ncncc1F)[C@](O)(Cn1cncn1)c1ccc(F)cc1F [VORICONAZOLE] | 100% | 1 mg/L (≈ 2.86 µM) | Non-Toxic | Non-Toxic | 0.25 mg/L (≈ 0.716 µM) | > 32 mg/L | Non-Toxic | > 32 mg/L | > 32 mg/L | > 100% | > 32 mg/L | > 100% | > 32 mg/L | > 32 mg/L | Non-Toxic | > 100% | MIC (Nakaseomyces glabratus [29]): > 32 mg/L; Activity (BEAS-2B [30]): Non-Toxic; fractional inhibitory concentration index (FICI) (Candida albicans [31]): 2; MIC (Candida albicans [32]): > 32 mg/L; MIC (Candida albicans [33]): 2 mg/L; Activity (J774.A1 [34]): Non-Toxic; MIC (Candida albicans [35]): > 32 mg/L; MIC (Candida albicans [36]): 4 mg/L (≈ 11.5 µM); MIC (Candida albicans [37]): > 32 mg/L; MIC (Candida albicans [38]): 0.25 mg/L (≈ 0.716 µM); MIC (Aspergillus terreus [39]): 0.5 mg/L; MIC (Candida albicans [40]): 0.25 mg/L (≈ 0.716 µM); Activity (HEK293 [41]): Non-Toxic
